Data set [1] deals with MDA-MB-231. The data set can be described thus: cells. To be noted: Homo sapiens, MDA-MB-231, 120 h.
In data set [2] the test system is MCF7. The data set can be described thus: cells. To be noted: Homo sapiens, MCF7, 120 h.
For data set [3], the target named is Cytochrome P450 2C9 (Homo sapiens, UniProt P11712). The experiment in a line: Inhibition of CYP2C9 (unknown origin) at 10 uM. The data set is classed as ADME.
Data set [4] is described as follows: Antiproliferative activity against SRC, YES and FYN deficient mouse SYF cells at 3 to 100 nM. The data set is classed as cell-based. To be noted: 0.1 µM.
Data set [5] deals with MDA-MB-231. The data set can be described thus: Antimigratory activity in human MDA-MB-231 cells at >10 nM after 24 hrs by microscopy based scratch-wound cell migration assay. The data set is classed as functional.
Data set [6] relates to MCF7. The data set can be described thus: Induction of apoptosis in human MCF7 cells assessed as caspase 3/7 activity at >/= 100 nM after 5 days using phase contrast and fluorescent microscopy. The data set is classed as functional, cell-based.
For data set [7], the system named is Plasma. The experiment in a line: Metabolic stability in human plasma at 1 uM after 20 to 120 mins by LC-MS/MS analysis. The data set is classed as ADME, cell-free.
Data set [8] has as its system Mus musculus. The experiment in a line: In vivo inhibition of SRC phosphorylation at tyrosine 416 in human HCT116 cells xenografted in mouse at 50 mg/kg via oral gavage administered daily for 3 days measured 3 hrs post last dose by immunohistochemistry. The data set is classed as functional, organism-based. To be noted: HCT-116. On the technique in general: Xenograft models place foreign cells or tissue in a host animal.

The subject of data set [9] is Plasma. The data set can be described thus: Metabolic stability in rat plasma at 1 uM after 20 to 120 mins by LC-MS/MS analysis. The data set is classed as ADME, cell-free.
Data set [10] deals with T1, Cytochrome P450 1A2 (Homo sapiens, UniProt P05177).
T1 sequence (P05177 whole entry): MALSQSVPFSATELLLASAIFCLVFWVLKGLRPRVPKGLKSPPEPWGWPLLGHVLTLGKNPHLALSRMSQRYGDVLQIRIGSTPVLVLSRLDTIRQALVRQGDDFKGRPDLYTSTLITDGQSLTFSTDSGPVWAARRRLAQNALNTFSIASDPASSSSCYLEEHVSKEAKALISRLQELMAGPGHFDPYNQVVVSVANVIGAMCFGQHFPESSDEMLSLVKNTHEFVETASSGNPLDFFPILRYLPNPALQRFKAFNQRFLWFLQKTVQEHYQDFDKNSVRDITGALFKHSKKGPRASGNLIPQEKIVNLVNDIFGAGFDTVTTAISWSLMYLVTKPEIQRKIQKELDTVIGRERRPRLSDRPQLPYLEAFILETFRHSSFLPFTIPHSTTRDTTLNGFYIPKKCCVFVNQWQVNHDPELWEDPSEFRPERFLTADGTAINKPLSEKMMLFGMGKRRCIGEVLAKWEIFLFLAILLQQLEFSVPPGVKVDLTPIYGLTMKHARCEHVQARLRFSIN
The data set can be described thus: Inhibition of CYP1A2 (unknown origin) at 10 uM. The data set is classed as ADME.

Data set [11] concerns the target Focal adhesion kinase 1 (Mus musculus) (UniProt P34152). The data set can be described thus: Inhibition of FAK phosphorylation at tyrosine 861 in SRC, YES and FYN deficient mouse SYF cells at 3 to 100 nM preincubated for 1.5 hrs followed by serum stimulation for 1 hr by Western blot analysis. The data set is classed as cell-based. On the technique in general: In western blotting, separated proteins are transferred to a membrane and probed.

Data set [12] deals with Proto-oncogene tyrosine-protein kinase Src (Homo sapiens, UniProt P12931).
Data set [13] concerns the target Cytochrome P450 2C19 (Homo sapiens, UniProt P33261). The experiment in a line: Inhibition of CYP2C19 (unknown origin) at 10 uM. The data set is classed as ADME.
For data set [14], the species on record is Danio rerio. The data set can be described thus: Effect on the development of the wild-type zebrafish embryos at 500 uM treated for 4 hrs measured at 48 hrs by fluorescent microscopy. To be noted: in vivo. The data set is classed as ADME, organism-based.
The target of data set [15] is Mast/stem cell growth factor receptor Kit (Homo sapiens, UniProt P10721). The experiment in a line: Inhibition of human KIT using poly[Glu,Tyr]4:1 as substrate in presence of [gamma-33P]ATP.
Data set [16] concerns the target Cytochrome P450 3A4 (Homo sapiens, UniProt P08684). The data set can be described thus: Inhibition of CYP3A4 (unknown origin) at 10 uM. The data set is classed as ADME.
For data set [17], the system named is Plasma. The experiment in a line: Metabolic stability in mouse plasma at 1 uM after 20 to 120 mins by LC-MS/MS analysis. The data set is classed as ADME, cell-free.
The target of data set [18] is Cytochrome P450 2D6 (Homo sapiens, UniProt P10635). The experiment in a line: Inhibition of CYP2D6 (unknown origin) at 10 uM. The data set is classed as ADME.
Data set [19] has as its system MDA-MB-231. The data set can be described thus: Cytotoxicity against human MDA-MB-231 cells assessed as reduction in cell viability at >10 nM after 24 hrs. The data set is classed as cell-based. To be noted: mda-mb-231, 24 h.
The subject of data set [20] is MCF7. The experiment in a line: Antiproliferative activity against human MCF7 cells assessed as reduction in cell confluence level at […] after 5 days by microscopy based time-lapse imaging assay. The data set is classed as functional.
Data set [21] in a line: Half life in nude mouse at 10 mg/kg, […] via oral gavage. To be noted: in vivo. The data set is classed as ADME, organism-based.
For data set [22], the species on record is Danio rerio. The experiment in a line: Cardiotoxicity in wild-type zebrafish embryos assessed as heart enlargement at 1 to 10 uM treated for 4 hrs measured after 48 hrs by fluorescent microscopy. The data set is classed as toxicity, organism-based. To be noted: in vivo.
In data set [23] the test system is MDA-MB-231. The data set can be described thus: Increase in total SRC in human MDA-MB-231 cells preincubated for 1.5 hrs followed by serum stimulation for 1 hr by Western blot analysis. The data set is classed as cell-based. To be noted: mda-mb-231, 1 h.
The species named for data set [24] is Danio rerio. The data set can be described thus: Cardiotoxicity in wild-type zebrafish embryos at >10 uM treated for 4 hrs measured after 48 hrs by fluorescent microscopy. To be noted: in vivo. The data set is classed as organism-based.
For data set [25], the species on record is Danio rerio. The data set can be described thus: Toxicity in wild-type zebrafish embryos assessed as mortality at >10 uM treated for 4 hrs measured after 48 hrs by fluorescent microscopy. To be noted: in vivo. The data set is classed as organism-based.
Data set [26] can be described thus: Solubility of the compound in water at pH 7. The data set is classed as physicochemical.
Data set [27] in a line: Solubility of the compound in water at pH 2.6. The data set is classed as physicochemical.

Activity calls are given as the source filed them. The rule behind the calls is not given here. Where only a bound is given, the exact number is not on record here.

Chain of Cytochrome P450 3A4 (P08684 whole entry): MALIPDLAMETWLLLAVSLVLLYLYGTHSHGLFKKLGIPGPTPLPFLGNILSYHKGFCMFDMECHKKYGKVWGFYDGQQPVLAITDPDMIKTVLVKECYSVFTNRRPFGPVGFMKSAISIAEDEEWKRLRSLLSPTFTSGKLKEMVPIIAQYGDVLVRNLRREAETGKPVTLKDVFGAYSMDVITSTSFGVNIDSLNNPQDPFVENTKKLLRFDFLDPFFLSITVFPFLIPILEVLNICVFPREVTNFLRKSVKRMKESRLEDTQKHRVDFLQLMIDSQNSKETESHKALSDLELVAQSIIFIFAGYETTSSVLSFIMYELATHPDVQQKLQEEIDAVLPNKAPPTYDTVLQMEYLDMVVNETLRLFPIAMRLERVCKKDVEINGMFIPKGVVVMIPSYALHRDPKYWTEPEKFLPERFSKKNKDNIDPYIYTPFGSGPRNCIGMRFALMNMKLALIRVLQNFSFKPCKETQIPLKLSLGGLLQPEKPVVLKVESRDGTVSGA
Chain of Focal adhesion kinase 1 (Mus musculus) (P34152 whole entry): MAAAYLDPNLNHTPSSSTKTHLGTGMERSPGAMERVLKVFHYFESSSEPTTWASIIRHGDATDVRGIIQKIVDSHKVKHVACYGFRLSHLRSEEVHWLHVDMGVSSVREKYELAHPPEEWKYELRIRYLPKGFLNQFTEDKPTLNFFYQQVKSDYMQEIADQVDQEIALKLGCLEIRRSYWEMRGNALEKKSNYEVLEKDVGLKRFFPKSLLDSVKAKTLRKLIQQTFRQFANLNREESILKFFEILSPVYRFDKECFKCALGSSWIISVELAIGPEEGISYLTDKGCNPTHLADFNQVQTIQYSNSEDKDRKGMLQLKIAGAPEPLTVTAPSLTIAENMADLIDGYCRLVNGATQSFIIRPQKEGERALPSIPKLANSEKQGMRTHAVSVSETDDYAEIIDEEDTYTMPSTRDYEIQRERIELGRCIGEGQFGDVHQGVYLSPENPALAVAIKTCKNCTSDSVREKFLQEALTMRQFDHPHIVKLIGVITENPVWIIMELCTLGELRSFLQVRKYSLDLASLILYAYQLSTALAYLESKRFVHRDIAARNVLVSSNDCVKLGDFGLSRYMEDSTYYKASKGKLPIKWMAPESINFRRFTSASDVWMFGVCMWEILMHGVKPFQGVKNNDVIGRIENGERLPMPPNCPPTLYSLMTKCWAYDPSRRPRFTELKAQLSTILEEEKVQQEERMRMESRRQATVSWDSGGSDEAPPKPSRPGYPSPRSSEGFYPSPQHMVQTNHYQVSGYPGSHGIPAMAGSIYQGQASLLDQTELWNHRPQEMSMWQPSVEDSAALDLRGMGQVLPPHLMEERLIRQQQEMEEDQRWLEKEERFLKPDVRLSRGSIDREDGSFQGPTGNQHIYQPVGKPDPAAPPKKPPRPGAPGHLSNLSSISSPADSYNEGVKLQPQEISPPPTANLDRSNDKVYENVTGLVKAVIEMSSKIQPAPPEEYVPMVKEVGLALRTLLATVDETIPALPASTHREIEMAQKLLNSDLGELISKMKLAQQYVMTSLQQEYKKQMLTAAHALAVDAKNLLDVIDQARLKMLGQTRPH
Chain of Cytochrome P450 2C19 (P33261 whole entry): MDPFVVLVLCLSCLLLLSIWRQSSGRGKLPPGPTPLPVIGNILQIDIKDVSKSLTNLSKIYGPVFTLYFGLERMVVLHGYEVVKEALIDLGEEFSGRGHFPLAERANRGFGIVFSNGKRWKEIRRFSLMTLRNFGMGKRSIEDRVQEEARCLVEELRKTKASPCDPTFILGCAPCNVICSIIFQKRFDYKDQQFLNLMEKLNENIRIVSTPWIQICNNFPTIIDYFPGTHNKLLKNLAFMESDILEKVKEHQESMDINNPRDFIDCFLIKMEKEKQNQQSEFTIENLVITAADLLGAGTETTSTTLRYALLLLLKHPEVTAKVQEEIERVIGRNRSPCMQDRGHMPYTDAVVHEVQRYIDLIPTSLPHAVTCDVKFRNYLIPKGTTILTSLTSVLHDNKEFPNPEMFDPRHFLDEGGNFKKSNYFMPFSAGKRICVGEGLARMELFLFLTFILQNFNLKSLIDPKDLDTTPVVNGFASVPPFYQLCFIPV
Chain of Cytochrome P450 2D6 (P10635 whole entry): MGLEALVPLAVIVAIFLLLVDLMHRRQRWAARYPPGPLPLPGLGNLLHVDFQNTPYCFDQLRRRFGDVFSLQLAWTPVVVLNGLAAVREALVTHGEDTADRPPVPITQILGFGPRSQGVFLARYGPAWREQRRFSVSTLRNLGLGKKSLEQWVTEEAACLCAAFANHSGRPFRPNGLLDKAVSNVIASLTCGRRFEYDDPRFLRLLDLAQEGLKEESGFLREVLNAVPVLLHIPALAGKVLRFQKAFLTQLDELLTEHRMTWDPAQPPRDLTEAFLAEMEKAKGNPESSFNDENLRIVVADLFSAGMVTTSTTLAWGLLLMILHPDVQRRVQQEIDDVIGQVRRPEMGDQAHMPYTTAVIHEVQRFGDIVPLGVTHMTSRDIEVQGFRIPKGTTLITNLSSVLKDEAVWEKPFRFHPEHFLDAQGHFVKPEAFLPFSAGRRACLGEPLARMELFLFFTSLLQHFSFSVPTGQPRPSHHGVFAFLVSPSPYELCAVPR
Chain of Mast/stem cell growth factor receptor Kit (P10721 whole entry): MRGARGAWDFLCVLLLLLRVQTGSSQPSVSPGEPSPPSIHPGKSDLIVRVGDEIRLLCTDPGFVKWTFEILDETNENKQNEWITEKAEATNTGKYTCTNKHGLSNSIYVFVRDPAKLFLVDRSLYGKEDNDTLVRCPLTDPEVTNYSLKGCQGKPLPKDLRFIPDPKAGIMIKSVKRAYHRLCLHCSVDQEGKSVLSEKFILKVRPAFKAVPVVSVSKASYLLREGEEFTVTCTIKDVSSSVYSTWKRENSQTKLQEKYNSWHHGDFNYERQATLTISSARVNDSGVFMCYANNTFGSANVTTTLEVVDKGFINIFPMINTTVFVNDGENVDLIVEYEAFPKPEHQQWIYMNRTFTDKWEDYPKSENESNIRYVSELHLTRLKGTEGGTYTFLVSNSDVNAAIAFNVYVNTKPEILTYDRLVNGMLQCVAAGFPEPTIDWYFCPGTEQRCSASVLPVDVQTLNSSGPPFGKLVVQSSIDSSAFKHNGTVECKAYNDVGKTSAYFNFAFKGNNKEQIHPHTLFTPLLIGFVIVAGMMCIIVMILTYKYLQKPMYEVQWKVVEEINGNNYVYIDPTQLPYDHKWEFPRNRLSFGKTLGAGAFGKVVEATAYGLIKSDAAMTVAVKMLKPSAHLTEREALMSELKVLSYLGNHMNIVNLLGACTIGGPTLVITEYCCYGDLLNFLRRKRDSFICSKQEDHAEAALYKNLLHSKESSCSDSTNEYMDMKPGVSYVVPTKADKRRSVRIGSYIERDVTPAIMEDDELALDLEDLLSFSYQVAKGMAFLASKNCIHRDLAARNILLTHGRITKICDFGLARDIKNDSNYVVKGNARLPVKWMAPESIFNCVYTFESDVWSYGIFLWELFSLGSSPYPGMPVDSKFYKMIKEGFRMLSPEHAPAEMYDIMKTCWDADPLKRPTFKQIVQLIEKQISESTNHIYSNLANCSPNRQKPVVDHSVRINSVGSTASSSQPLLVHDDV
Chain of Cytochrome P450 2C9 (P11712 whole entry): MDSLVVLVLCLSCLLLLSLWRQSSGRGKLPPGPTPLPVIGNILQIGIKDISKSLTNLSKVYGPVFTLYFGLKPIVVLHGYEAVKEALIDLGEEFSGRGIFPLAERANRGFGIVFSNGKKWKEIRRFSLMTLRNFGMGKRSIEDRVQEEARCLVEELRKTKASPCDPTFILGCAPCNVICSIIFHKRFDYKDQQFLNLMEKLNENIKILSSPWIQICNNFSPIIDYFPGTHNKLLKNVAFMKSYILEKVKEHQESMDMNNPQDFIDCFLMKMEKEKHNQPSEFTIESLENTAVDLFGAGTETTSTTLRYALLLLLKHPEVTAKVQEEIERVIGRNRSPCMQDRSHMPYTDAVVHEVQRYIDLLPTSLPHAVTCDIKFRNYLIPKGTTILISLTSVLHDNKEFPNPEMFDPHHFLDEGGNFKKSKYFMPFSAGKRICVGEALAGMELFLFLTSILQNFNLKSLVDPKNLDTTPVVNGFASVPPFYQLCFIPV
Chain of Proto-oncogene tyrosine-protein kinase Src (P12931 2-536 limits assumed): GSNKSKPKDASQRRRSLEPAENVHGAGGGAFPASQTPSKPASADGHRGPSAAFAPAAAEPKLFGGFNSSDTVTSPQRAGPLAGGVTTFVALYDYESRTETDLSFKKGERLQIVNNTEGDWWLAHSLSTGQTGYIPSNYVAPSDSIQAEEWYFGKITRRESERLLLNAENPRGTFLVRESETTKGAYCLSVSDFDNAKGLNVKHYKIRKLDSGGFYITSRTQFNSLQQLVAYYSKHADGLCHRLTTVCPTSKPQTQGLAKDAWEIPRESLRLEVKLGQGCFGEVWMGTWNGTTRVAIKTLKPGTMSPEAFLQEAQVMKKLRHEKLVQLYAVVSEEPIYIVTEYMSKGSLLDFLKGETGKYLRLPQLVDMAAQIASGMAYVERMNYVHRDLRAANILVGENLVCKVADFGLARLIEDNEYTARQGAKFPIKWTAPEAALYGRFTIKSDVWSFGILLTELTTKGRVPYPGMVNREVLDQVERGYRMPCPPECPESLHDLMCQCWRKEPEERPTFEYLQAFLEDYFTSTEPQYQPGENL

As to `COc1ccc(-c2nn(CCN3CCC(N(C)C)CC3)c3ncnc(N)c23)cc1NC(=O)OC(C)(C)C`, the EC50 in data set [1] was 28.6 µM.

Turning to `CN(C)C1CCN(CCn2nc(-c3ccc(NC(=O)OC(C)(C)C)nc3)c3c(N)ncnc32)CC1`, the midpoint of the response in data set [1], the EC50, lay at 17.7 µM.

For `COc1cc(-c2nn(CCN3CCCC(N(C)C)C3)c3ncnc(N)c23)ccc1NC(=O)OC(C)(C)C` (stereo not given), the EC50 in data set [1] was 1.99 µM.

Take `CN(C)CC1CCN(CCn2nc(-c3ccoc3)c3c(N)ncnc32)CC1`: the 50% effective concentration (EC50) in data set [2] stood at 57.1 µM.

Consider `CCOC(Cn1nc(-c2ccc3ncccc3c2)c2c(N)ncnc21)OCC`, for which the EC50 in [2] came to 263 µM.

Take `COc1cc(-c2nn(CCN3CCC(N(C)C)CC3)c3ncnc(N)c23)ccc1CC(=O)N1CCCC1`: the EC50 in data set [1] was greater than 100 µM.

The molecule `COc1cc(-c2nn(CCN3CCC(OC)CC3)c3ncnc(N)c23)ccc1NC(=O)OC(C)(C)C` came in with an EC50 in data set [1] of 1.96 µM.

Take `CCOC(Cn1nc(-c2cccc(O)c2)c2c(N)ncnc21)OCC`: the EC50 in [2] stood at 7.6 µM.

Take `COc1cc(-c2nn(CCN3CCC(N(C)C)CC3)c3ncnc(N)c23)ccc1NC(=O)CCc1ccccc1`: the EC50 in data set [1] amounted to 12.2 µM.

Take `CN(C)CC1CCN(CCn2nc(C#Cc3ccccc3)c3c(N)ncnc32)CC1`: the EC50 in data set [2] was 13.5 µM.

With `CN(C)C1CCN(CCn2nc(-c3cccc(NC(=O)OC(C)(C)C)c3)c3c(N)ncnc32)CC1`, in [1], the EC50 was determined as 26.8 µM.

Regarding `COc1cc(-c2nn(CCN3CCC(N(C)C)CC3)c3ncnc(N)c23)ccc1NC(=O)OC(C)(C)C`, the “inhibition (INH)” value in data set [3] is “Not Active”; in data set [10], “Active”; in [13], “Not Active”; in data set [16] it was “Not Active”; in data set [18], “Not Active”. Besides, the Activity entry in [4] is reported as “Non-toxic”; in [14], “Non-toxic”; in data set [19] it was “Toxic”. In addition, the outcome in data set [5] and in [6] was Active. Besides, the Stability result in [7], in data set [9] and in data set [17] was “Stable” throughout. In addition, in data set [8], the inhibition entry was “Active”. Moreover, the inhibition result in data set [11] was “inactive”. In addition, in data set [12], the TDI entry is “inactive”. Also, the IC50 in data set [15] is greater than 10 µM.

Regarding `CCOC(Cn1nc(C#Cc2ccccc2)c2c(N)ncnc21)OCC`, the EC50 in data set [2] is 5 µM.

`Cc1ccc(-c2nn(CCN3CCN(CCN(C)C)CC3)c3ncnc(N)c23)cc1`: the result in [20] was Active.

In [2], `CCOC(Cn1nc(-c2ccoc2)c2c(N)ncnc21)OCC` registered an EC50 of 43.1 µM.

In data set [1], `COc1cc(-c2nn(CCN3CCC(N(C)C)CC3)c3ncnc(N)c23)ccc1N` returned an EC50 of 6.72 µM.

Take `Cc1nc(Nc2ncc(C(=O)Nc3c(C)cccc3Cl)s2)cc(N2CCN(CCO)CC2)n1.O` [DASATINIB]: in data set [21], the half-life is 54 min. The Activity result was “Toxic” in data set [22], “Dose-dependent effect” in [23], “Toxic” in [24] and “Toxic” in data set [25]. For the same molecule, the solubility in data set [26] is less than 0.001 mg/mL; in data set [27] it was 18 mg/mL.

`COc1cc(-c2nn(CCN3CCC(N(C)C)CC3)c3ncnc(N)c23)ccc1NCc1ccccn1` registered an EC50 in data set [1] of 40.2 µM.

The EC50 is the midpoint of the concentration-response curve. A high value points to a need for much substance. As a reminder, the IC50 is the concentration at which inhibition is half-maximal. Broadly, the half-life is how long it takes for the measured level to halve. A word on the solubility: it is the dissolved amount per volume that the medium holds. A lower solubility goes with little dissolved substance.

Source of the values: ChEMBL document CHEMBL3822371, “Rapid Discovery and Structure-Activity Relationships of Pyrazolopyrimidines That Potently Suppress Breast Cancer Cell Growth via SRC Kinase Inhibition with Exceptional Selectivity over ABL Kinase” (J Med Chem, 2016).
